Experimental data reported in a melting point compilation (Tetko et al.; mined from patent text by program, amines drawn as free bases though some values may be those of a salt).

| melting point [°C] | Compound |
| --- | --- |
| 142 to 144 | CC1(C)Oc2ccc(C(N)=S)cc2C(Oc2ccnc(O)c2)C1(C)O (stereo unspecified) |
| 177 to 178 | CC(C)n1nc(-c2c(OCc3ccccn3)nc(N)nc2-c2ccccc2)ccc1=O |
| 215 to 217 | COc1ccc(-c2nnc(Nc3ccc4cccnc4c3)cc2-c2ccc(C(F)(F)F)cc2)cc1 |
| > 300 | Cc1nc2nc[nH]c2c(=O)[nH]1 |
| > 260 | NC(=O)c1ncn2c(-c3cccnc3)ccnc12 |
| 136 | CN1C(=O)Cc2cc(CCCl)ccc21 |
| 183 to 184 | COc1ccc(C(=NOCc2ccc(OCc3nc(-c4ccccc4)oc3C)cc2)C(=O)O)cc1 |
| 117 to 118 | Cc1ccc2c(Cl)c3ccccc3nc2c1 |
| 81.3 to 81.5 | COc1ccc(Cn2nc(-c3ccc(S(C)=O)cc3)c(-c3ccc(F)cc3)cc2=O)cc1 (stereo unspecified) |
| 150 to 152 | NS(=O)(=O)c1ccc(-c2cnn(CC(F)(F)F)c(=O)c2Oc2ccc(F)cc2)cc1 |
| 110 to 111 | CC(C)(C)OC(=O)C1CCNC1=S (stereo unspecified) |
| 87 to 88 | CN(C)C(=O)c1ccccc1Sc1ccc(Cl)cc1C=O |
| 153 to 155 | CCOC(=O)C1=C(C)NC(C)=C(C(=O)OCC)C1c1cccc2nonc12 |
| 76 to 77 | COC(=O)COc1cccc2c1CCC(Br)C2=O (stereo unspecified) |
| 70 to 71 | Cc1ccc2[nH]c(=O)sc2c1 |
| 184 to 186 | CSc1nc(=O)cc(C)n1C1CCCCC1 |
| 161 to 162 | Cc1nc(NC(=O)NS(=O)(=O)C(Cl)C(C)Cl)nc(C)c1Cl (stereo unspecified) |
| 87.7 | Cn1nnc2ccc(C(c3ccc(Cl)cc3)n3ccnc3)cc21 (stereo unspecified) |
| 199 to 201 | C[C@@H]1S[C@@H](C(=O)Nc2ccc(CN3CCC(=O)CC3)cc2)Cc2cc3c(cc2C1=O)OCO3 |
| 212 to 215 | CCCc1c(OCCCS(=O)(=O)c2nc3ccc(C(=O)O)cc3[nH]2)ccc(C(C)=O)c1O |
| 77 to 79 | CCCCn1c(=O)c2[nH]ncc2n(CCC(C)C)c1=O |
| > 280 | NNc1nc(Cl)nc2cc3c(cc12)OCO3 |
| 140 | Cc1nc2scc(C)n2c(=O)c1CCN1CCC(C2(c3ccc(F)cc3)OCCO2)CC1 |
| 68 to 72 | Cc1nc(-c2ccccc2)ncc1C(=O)c1ccccc1 |
| 66.5 to 67.5 | OCCCCOc1ccc2ccccc2c1 |

| melting point [°C] | Compound |
| --- | --- |
| 127 to 130 | COc1nc(N)nc(-c2ccc(S(C)=O)cc2)c1-c1ccc(=O)n(C(C)C)n1 (stereo unspecified) |
| 312 to 314 | O=C(O)c1ccc(C(=O)O)c(-c2nc3ccccc3[nH]2)c1 |
| 142 to 144 | CC(O)c1ccc(OCCCN2CCC(c3noc4cc(F)ccc34)CC2)c(O)c1 (stereo unspecified) |
| 131 to 134 | CC(C)(C)OC(=O)N[C@H]1CC[C@H](CN2CCN(c3cccc4c3CCC4)CC2)CC1 |
| 95 to 97 | COC(=O)CCCc1cc2cc(Cl)ccc2n1S(=O)(=O)c1ccc(C(C)C)cc1 |
| 283 to 285 | O=C1NC(=O)C(c2c[nH]c3ccccc23)C1C(=O)c1cn2c3c(cccc13)CCC2 (stereo unspecified) |
| 129 to 130 | CCOC(=O)c1nc(CCl)n(-c2ccccc2C(=O)c2ccccn2)n1 |
| 186 to 190 | NC(=O)c1c(Cl)c(-c2ccccc2)n2c1CN(S(=O)(=O)c1ccc(-c3ccon3)s1)CC2 |
| 117 to 120 | COc1ccc(OC)c2c1CC[C@](O)(C(C)=O)C2 |
| 308 to 310 | CCn1cc(C(=O)O)c(=O)c2c(F)c(F)c(N3CCSCC3)c(F)c21 |
| 103 to 106 | O=C(CSc1ncccn1)NC/C=C\COc1cc(CN2CCCCC2)ccn1 |
| 92 to 94 | CN(C(=O)c1ccc2c(c1)nc(NC(=O)c1cccs1)n2CCCOC(=O)c1cccs1)C1CCCCC1 |
| 101 to 102 | CC(=O)C1(C)COC(c2ccc([N+](=O)[O-])cc2)OC1 (stereo unspecified) |
| 195 to 197 | Cc1nc2ccccn2c1-c1csc(Nc2cccc(C(=O)Nc3ccccc3N)c2)n1 |
| 160 | CC1(C)c2ccccc2-c2[nH]c3ccccc3c21 |
| 158 to 159 | Cc1cc(NC(=O)CCc2cccs2)cc(C)c1O |
| 138 to 140 | O=[N+]([O-])C1(Cl)C=CC(S(=O)c2ccc(Br)cc2)=CC1 (stereo unspecified) |
| 135 | COC(=O)c1cc(Cl)c(N)c2c1OCC2 |
| 207 to 208 | CC(=O)Nc1cncc(NC(=NC#N)NC2(c3ccccc3)CCC2)c1 |
| 70 to 75 | O=C(Nc1ccc(F)c([N+](=O)[O-])c1)C(F)(F)F |
| 238 to 240 | CCOP(=O)(COCC(CO)On1cnc2c(=O)[nH]c(N)nc21)OCC (stereo unspecified) |
| 104 to 105 | CC(C)CCn1c(=O)c(=NNc2ccccc2)c(=O)n(-c2ccccc2F)c2ccccc21 |
| 83 to 85 | COC(=O)C(C)Oc1ccc(COc2ccc(-n3nc(C)n(C(F)F)c3=O)c(F)c2)cc1 (stereo unspecified) |
| 217 to 220 | COc1ccc(-c2ccc(C(=O)Nc3ccc4cc(CN5CCCC5)cnc4c3F)cc2)cc1 |
| 165 | COc1ccc2c(c1)c(SC)c(C(=O)O)n2C |

| melting point [°C] | Compound |
| --- | --- |
| 243 to 247 | CC1(N)CN(c2c(F)c(N)c3c(=O)c(C(=O)O)cn(C4CC4)c3c2F)C1 |
| 92 to 93 | CCC(CC)(CC(=O)Nc1cccc(OCc2ccc3ccc(F)cc3n2)c1)C(=O)O |
| 77 | COc1ccc(-c2nc(S(C)(=O)=O)ncc2C(=O)N2CCOCC2)cc1OC |
| 116 to 117 | O=S(=O)(CCCCl)Nc1cccc(OCc2ccc3ccccc3n2)c1 |
| 46 to 47 | COc1cccc(C(C)(C)C(=O)O)c1 |
| 150 to 151 | CN1CCNC(=O)N1c1cc(Cl)cc(Cl)c1 |
| 159 to 161 | Nc1nc(NCCN2CCOCC2)nc(-c2cc(Cl)ccc2Cl)n1 |
| 243 to 245 | COc1ccc(C2Sc3cc(Oc4ccc(Cl)cc4)ccc3NC(=O)C2O)cc1 (stereo unspecified) |
| 83 to 84 | CC(C)c1cc(C(=O)CO[C@@H]2C[C@H](C)CC[C@H]2C(C)C)cc(C(C)C)c1O |
| 182 to 184 | CC(C)(C)c1cc(NC(=O)Nc2ccc(Oc3ccccc3)cc2)on1 |
| 99 to 101 | C=CCN1N=C(c2ccc(OC)c(OC)c2)[C@@H]2CCCC[C@@H]2C1=O (relative stereo) |
| 175 to 178 | O=C(c1cccs1)c1cnn2c(-c3cccc(-c4ccc(CN5CCOCC5)cc4)c3)ccnc12 |
| 129 to 131 | COc1ccccc1-c1ccccc1/C=C/C1CC(O)CC(=O)O1 (stereo unspecified) |
| 101 to 102 | NCC1CC(n2cc(-c3cccc(F)c3)c3c(N)ncnc32)C1 (stereo unspecified) |
| 140 to 145 | O=C1OC(O)c2cccc(Cl)c21 (stereo unspecified) |
| 148 | O=Cc1ccc2noc(-c3cccc(Cl)c3)c2c1 |
| 123 to 125 | COc1ccc2c(c1)c(Cc1cc(=O)n(-c3ccc(Cl)c(Cl)c3)[nH]1)c(C)n2C(=O)c1ccc(Cl)cc1 |
| 43 to 45 | CC(C)[C@H]1C(=O)OCN1C(=O)OC(C)(C)C |
| 143 to 144 | CC(C)(C)c1csc(-c2cc3cc(CO)ccc3o2)n1 |
| > 300 | CC(=O)Oc1n[nH]c(=O)c2nc3cc(Cl)ccc3c(O)c12 |
| 185 | O=C(NC1CCC(CCN2CCN(c3nccc4c3OCC4)CC2)CC1)C(O)C(F)(F)F (racemic) |
| 131 to 133 | Fc1cc(F)c2c(c1)C[C@@H](n1ccn(CCc3ccccc3)c1=S)CC2 |
| 192 | Nc1cc(=O)n(Cc2ccc(F)cc2Cl)[nH]1 |
| 97 to 98 | O=CNCc1ccc(CN2CCN(c3ncccn3)CC2)cc1 |
| 142 | O=CN[C@H]1CC[C@H](CCN2CCC(c3cccc4c3CCO4)CC2)CC1 |

| melting point [°C] | Compound |
| --- | --- |
| 92 to 93 | Cc1cc(-c2nc(COc3ccc(CCCn4ccnc4)cc3)co2)sc1Br |
| 59 to 60 | COCCOCCOC(=O)/C=C/C(=O)/C=C/c1cccc(OC)c1 |
| 123 to 124 | COC(=O)CCCc1cc2nc(Cl)ccc2n1S(=O)(=O)c1ccc(N(C)C)cc1Cl |
| 137 | N=C(NO)c1cc(Oc2ccc(Cl)cc2Cl)c(O)cc1Cl |
| 176 to 178 | CC(c1oc2ccccc2c(=O)c1-c1cccc(F)c1)n1nc(-c2ccc(OCc3ccccc3)cc2)c2c(N)ncnc21 (stereo unspecified) |
| 194 to 196 | OCCCN1Cc2cccc3c2N(CC3)c2ccccc21 |
| 227 to 228 | CCn1c(=O)ccc2cnc(Nc3ccc(N4CCOCC4)cc3)nc21 |
| 122 to 123 | CSc1ccc(C(=O)c2c(C)cc3n2CCC3C(=O)OC(C)c2ccccc2)n1C (stereo unspecified) |
| 74 to 77 | CN(CCCS(=O)CCCC(F)(F)C(F)(F)F)CCOc1ccc(C2=C(c3ccccc3)CCCc3ccccc32)cc1 (stereo unspecified) |
| 171 to 173 | N#Cc1ccc(N2CCc3nc4cc(Cl)ccc4c(Cl)c3C2)nc1 |
| 78 to 79 | CCCCCCCCCCCCS(=O)(=O)c1c(O)cc(C)oc1=O |
| 137 to 138 | ClCc1ccc(-c2ccc(CCl)cc2)cc1 |
| 156 to 159 | Clc1ccc(Cn2cnc3c(-c4ccco4)ncnc32)cc1 |
| 206 to 208 | CC1C(=O)NC2=Nc3ccc(OCCCCC(=O)N(CCO)C4CCCCC4)c(Cl)c3CN21 (stereo unspecified) |
| 201 to 202 | CC(C)n1c(CC[C@@H]2C[C@H](CC(=O)OC(C)(C)C)OC(C)(C)O2)c(-c2ccc(F)cc2)c(-c2ccccc2)c1C(N)=O |
| 85 to 87.5 | COc1ccc(/C=C(\C#N)c2ccccc2OC)cc1OC1CCCC1 |
| 72 to 73 | COc1c(F)cc(CCC(=O)O)cc1F |
| 102 | NC(=O)NCCS(=O)CC(O)CO (stereo unspecified) |
| 114 to 115 | OC1CSC(Sc2ccccc2C(F)(F)F)C(O)C1O (stereo unspecified) |
| 305 to 309 | COc1cc2c(=O)c(C#N)c[nH]c2cc1[N+](=O)[O-] |
| 52 to 54 | C=CCONC(CCC)=C1C(=O)C=C(C)OC1=O |
| 94 to 95 | O=C(CCc1nc(-c2ccc(Cl)cc2)co1)OC(c1ccccc1)c1ccccc1 |

| Compound | melting point [°C] |
| --- | --- |
| Cc1cc(N2CNC(=O)C23CCN(CCCn2c(=O)[nH]c4ccccc42)CC3)ccc1Cl | 209 |
| C#Cc1ccc2c(c1)C(c1ccccc1F)=NC(C)c1c(C(=O)OCC)ncn1-2 (stereo unspecified) | 212 to 214 |
| Cc1nn(-c2cc(F)c(C#N)cc2F)c(C)c1Cl | 153 |
| O=[N+]([O-])N=C1NCCN1Cc1ccc(F)nc1 | 121 to 124 |
